Reference: patent US9354230B2, “Methods and apparatus for conducting multiple measurements on a sample” (MESO SCALE TECHNOLOGIES, LLC., priority 2001, dated 2016)

Assays:
[1] = target: T1, HIV Reverse Transcriptase (RT) RNA-dependent DNA polymerase (RDDP) activity (Human immunodeficiency virus type 1 group M subtype B, UniProt P04585); experiment: ECL assay of HIV RT RDDP activity in one well of an MDMW Plate; assay type: biochemical; conditions: 125 uM; data not shown
T1 construct: HIV Reverse Transcriptase (RT), an enzyme with both a RNA-dependent DNA polymerase (RDDP) activity and an RNAse H activity

[2] = target: T2, HIV Reverse Transcriptase (RT) RNAse H activity (Human immunodeficiency virus type 1 group M subtype B, UniProt P04585); experiment: ECL assay of HIV RT RNAse H activity in one well of an MDMW Plate; assay type: biochemical; conditions: 125 uM; data not shown
T2 construct: HIV Reverse Transcriptase (RT), an enzyme with both a RNA-dependent DNA polymerase (RDDP) activity and an RNAse H activity

**Q.** How did the “inhibition of RDDP activity” value [1] turn out when `Nc1ccn([C@H]2CC[C@@H](COP(=O)(O)OP(=O)(O)OP(=O)(O)O)O2)c(=O)n1` [ddCTP] was run?
**A.** completely inhibited

**Q.** What about the “effect on RNAse H activity” value [2] of the same molecule?
**A.** no effect
